Assay results taken from ChEMBL document CHEMBL6114969, “Ultra-short lipopeptides containing d-amino acid exhibiting excellent stability and antibacterial activity against gram-positive bacteria” (Eur J Med Chem, 2025).
Values after ≈ are worked out from the molar mass of the structure shown. Active and inactive are the calls of the source. The rule behind the calls is not given here. Where a SMILES comes first, the peptide text is derived from it. Bridges are numbered along the chain shown (N, C = ends). [ ]: non-standard residue; d: D form. The star is where a group is joined. X1 = CC[C@H](C)CCCCC(=O)*; dDab = NCC[C@@H](N)C(=O)O; Dab = NCC[C@H](N)C(=O)O

How the values were obtained:
Staphylococcus aureus [1] = assay: Antibacterial activity against Staphylococcus aureus ATCC 25923 incubated for 18 to 24 hrs by broth microdilution method; type: functional; conditions: time 18-24 hrs
Staphylococcus aureus [2] = assay: Antibacterial activity against Staphylococcus aureus ATCC 29213 incubated for 18 to 24 hrs by broth microdilution method; type: functional; conditions: time 18-24 hrs
Staphylococcus aureus [3] = assay: Antibacterial activity against methicillin-resistant Staphylococcus aureus ATCC 33591 incubated for 18 to 24 hrs by broth microdilution method; type: functional; conditions: time 18-24 hrs
[4] = system: Staphylococcus epidermidis; assay: Antibacterial activity against Staphylococcus epidermidis ATCC 12228 incubated for 18 to 24 hrs by broth microdilution method; type: functional; conditions: time 18-24 hrs
Enterococcus faecalis = assay: Antibacterial activity against Enterococcus faecalis ATCC 29212 incubated for 18 to 24 hrs by broth microdilution method; type: functional; conditions: time 18-24 hrs
Staphylococcus aureus [5] = assay: Induction of drug resistance in methicillin-resistant Staphylococcus aureus ATCC 33591 at sub-MIC measured after 4 passages; type: functional, organism-based
Staphylococcus aureus [6] = assay: Induction of drug resistance in methicillin-resistant Staphylococcus aureus ATCC 33591 assessed as fold increase in MIC at sub-MIC measured after 8 passages relative to control; type: functional
Staphylococcus aureus [7] = assay: Induction of drug resistance in Staphylococcus aureus ATCC 25923 at sub-MIC measured after 2 passages; type: functional, organism-based
Staphylococcus aureus [8] = assay: Induction of drug resistance in Staphylococcus aureus ATCC 25923 assessed as fold increase in MIC at sub-MIC measured after 7 passages relative to control; type: functional
Staphylococcus aureus [9] = assay: Antibacterial activity against drug-resistant Staphylococcus aureus ATCC 25923 incubated for 18 to 24 hrs; type: functional; conditions: time 18-24 hrs
Staphylococcus aureus [10] = assay: Antibacterial activity against ciprofloxacin-resistant Staphylococcus aureus ATCC 25923 incubated for 18 to 24 hrs; type: functional; conditions: time 18-24 hrs
Staphylococcus aureus [11] = assay: Antibacterial activity against polymyxin B-resistant Staphylococcus aureus ATCC 25923 incubated for 18 to 24 hrs; type: functional; conditions: time 18-24 hrs
Staphylococcus aureus [12] = assay: Antibacterial activity against drug-resistant methicillin-resistant Staphylococcus aureus ATCC 33591 incubated for 18 to 24 hrs; type: functional; conditions: time 18-24 hrs
Staphylococcus aureus [13] = assay: Antibacterial activity against ciprofloxacin-resistant methicillin-resistant Staphylococcus aureus ATCC 33591 incubated for 18 to 24 hrs; type: functional; conditions: time 18-24 hrs
Staphylococcus aureus [14] = assay: Antibacterial activity against polymyxin B-resistant methicillin-resistant Staphylococcus aureus ATCC 33591 incubated for 18 to 24 hrs; type: functional; conditions: time 18-24 hrs
Staphylococcus aureus [15] = assay: Antibacterial activity against methicillin-resistant Staphylococcus aureus ATCC 33591 infected in Balb/c mouse model of acute systemic infection at 10 mg/kg, ip measured after 5 days; type: functional, organism-based; conditions: time 5.0 day
Staphylococcus aureus [16] = assay: Antibacterial activity against methicillin-resistant Staphylococcus aureus ATCC 33591 infected in Balb/c mouse model of pneumonia infection assessed as reduction in bacterial load in lung at 10 mg/kg, ip administered thrice at 4, 8 and 12 hrs post-infection measured after 24 hrs post-infection; type: functional, organism-based; conditions: time 20.0 hrs
Staphylococcus aureus [17] = assay: (§1) Antibacterial activity against methicillin-resistant Staphylococcus aureus ATCC 33591 infected in Balb/c mouse model of pneumonia infection assessed as reduction in inflammatory cell infiltration in lung at 10 mg/kg, ip administered thrice at 4, 8 and 12 hrs post-infection measured after 24 hrs post-infection by H and E staining based analysis; type: functional, organism-based; conditions: time 20.0 hrs
Staphylococcus aureus [18] = assay: as §1, with “bleeding” for “inflammatory cell infiltration”; type: functional, organism-based; conditions: time 20.0 hrs
Staphylococcus aureus [19] = assay: as §1, with “alveolar contraction” for “inflammatory cell infiltration”; type: functional, organism-based
Staphylococcus aureus [20] = assay: (§2) Antibacterial activity against methicillin-resistant Staphylococcus aureus ATCC 33591 infected in Balb/c mouse model of pneumonia infection assessed as reduction in TNF-alpha activity in lung at 10 mg/kg, ip administered thrice at 4, 8 and 12 hrs post-infection measured after 24 hrs post-infection by IHC analysis; type: functional, organism-based; conditions: time 20.0 hrs
Staphylococcus aureus [21] = assay: as §2, with “IL-1beta” for “TNF-alpha”; type: functional, organism-based; conditions: time 20.0 hrs
Staphylococcus aureus [22] = assay: (§3) Antibacterial activity against methicillin-resistant Staphylococcus aureus ATCC 33591 infected in Balb/c mouse model of skin wound infection assessed as reduction in bacterial load in skin at 10 mg/kg, ip administered thrice at 1, 24 and 48 hrs post-infection measured after 72 hrs post-infection; type: functional, organism-based; conditions: time 71.0 hrs
Staphylococcus aureus [23] = assay: as §1, with “skin wound” for “pneumonia”, “skin” for “lung”, “1, 24” for “4, 8”, “48” for “12”, “14 days” for “24 hrs post-infection”; type: functional, organism-based; conditions: time 14.0 day
Staphylococcus aureus [24] = assay: as §3, with “TNF-alpha activity” for “bacterial load”, “14 days by IHC analysis” for “72 hrs post-infection”; type: functional, organism-based; conditions: time 14.0 day
Staphylococcus aureus [25] = assay: as §3, with “IL-1beta activity” for “bacterial load”, “14 days by IHC analysis” for “72 hrs post-infection”; type: functional, organism-based; conditions: time 14.0 day
Staphylococcus aureus [26] = assay: as §3, with “in keratosis” for “in bacterial load”, “in wound surface” for “in skin”, “after 14 days by IHC analysis” for “after 72 hrs post-infection”; type: functional, organism-based; conditions: time 14.0 day
Staphylococcus aureus [27] = assay: Induction of drug resistance in methicillin-resistant Staphylococcus aureus ATCC 33591 assessed as fold increase in MIC at sub-MIC measured after 14 passages relative to control; type: functional
Staphylococcus aureus [28] = assay: Induction of drug resistance in Staphylococcus aureus ATCC 25923 assessed as fold increase in MIC at sub-MIC measured after 10 passages relative to control; type: functional
[29] = Toxicity in Balb/c mouse assessed as change in liver co-efficient at 20 mg/kg, ip measured after 7 days; type: organism-based; conditions: in vivo, 168 h, time 7 day
[30] = Toxicity in Balb/c mouse assessed as spleen atrophy at 20 mg/kg, ip measured after 7 days; type: organism-based; conditions: in vivo, 168 h, time 7 day
[31] = Toxicity in Balb/c mouse assessed as kidney atrophy at 20 mg/kg, ip measured after 7 days; type: organism-based; conditions: in vivo, 168 h, time 7 day
[32] = Toxicity in Balb/c mouse assessed as spleen pigmentation at 20 mg/kg, ip measured after 7 days; type: organism-based; conditions: in vivo, 168 h, time 7 day
[33] = Toxicity in Balb/c mouse assessed as kidney pigmentation at 20 mg/kg, ip measured after 7 days; type: organism-based; conditions: in vivo, 168 h, time 7 day
[34] = Toxicity in Balb/c mouse assessed as change in serum ALT level at 20 mg/kg, ip measured after 7 days; type: organism-based; conditions: in vivo, 168 h, time 7 day
[35] = Toxicity in Balb/c mouse assessed as change in serum AST level at 20 mg/kg, ip measured after 7 days; type: organism-based; conditions: in vivo, 168 h, time 7 day
[36] = Toxicity in Balb/c mouse assessed as change in serum BUN level at 20 mg/kg, ip measured after 7 days; type: organism-based; conditions: in vivo, 168 h, time 7 day
[37] = Toxicity in Balb/c mouse assessed as change in serum CREA level at 20 mg/kg, ip measured after 7 days; type: organism-based; conditions: in vivo, 168 h, time 7 day
[38] = Toxicity in Balb/c mouse assessed as cell swelling in kidney at 20 mg/kg, ip measured after 7 days by H and E staining based analysis; type: organism-based; conditions: in vivo, 168 h, time 7 day
[39] = Toxicity in Balb/c mouse assessed as inflammatory cell infiltration in kidney at 20 mg/kg, ip measured after 7 days by H and E staining based analysis; type: organism-based; conditions: in vivo, 168 h, time 7 day
[40] = Toxicity in Balb/c mouse assessed as cell swelling in liver at 20 mg/kg, ip measured after 7 days by H and E staining based analysis; type: organism-based; conditions: in vivo, 168 h, time 7 day
[41] = Toxicity in Balb/c mouse assessed as inflammatory cell infiltration in liver at 20 mg/kg, ip measured after 7 days by H and E staining based analysis; type: organism-based; conditions: in vivo, 168 h, time 7 day
[42] = Toxicity in Balb/c mouse assessed as cell swelling in lung at 20 mg/kg, ip measured after 7 days by H and E staining based analysis; type: organism-based; conditions: in vivo, 168 h, time 7 day
[43] = Toxicity in Balb/c mouse assessed as cell swelling in spleen at 20 mg/kg, ip measured after 7 days by H and E staining based analysis; type: organism-based; conditions: in vivo, 168 h, time 7 day

With `CNC(C)[C@@H]1CC[C@@H](N)[C@@H](O[C@H]2[C@H](O)[C@@H](O[C@H]3OC[C@](C)(O)[C@H](NC)[C@H]3O)[C@H](N)C[C@@H]2N)O1.CN[C@@H]1[C@@H](O)[C@@H](O[C@@H]2[C@@H](O)[C@H](O[C@H]3O[C@H](C(C)N)CC[C@H]3N)[C@@H](N)C[C@H]2N)OC[C@]1(C)O.CN[C@@H]1[C@@H](O)[C@@H](O[C@@H]2[C@@H](O)[C@H](O[C@H]3O[C@H](CN)CC[C@H]3N)[C@@H](N)C[C@H]2N)OC[C@]1(C)O` (stereo not given in full) the MIC (Staphylococcus aureus [1]) was 16 µM, the MIC (Staphylococcus aureus [2]) was 16 µM and the MIC (Staphylococcus aureus [3]) was 128 µM. For the same compound, the MIC [4] was 1 µM, the MIC (Enterococcus faecalis) was 16 µM and the Activity (Staphylococcus aureus [5]) was “Active”. For the same compound, the “fold change (FC)” value (Staphylococcus aureus [6]) was 256, the Activity (Staphylococcus aureus [7]) was “Active” and the “fold change (FC)” value (Staphylococcus aureus [8]) was 64. It also gave an MIC (Staphylococcus aureus [9]) of 128 µM, an MIC (Staphylococcus aureus [10]) of 128 µM and an MIC (Staphylococcus aureus [11]) of 128 µM. The MIC (Staphylococcus aureus [12]) was 128 µM, the MIC (Staphylococcus aureus [13]) was over 128 µM and the MIC (Staphylococcus aureus [14]) was over 128 µM.

With `CC(C)CCCCC(=O)N[C@@H](CCN)C(=O)N[C@H](C(=O)N[C@@H](CCN)C(=O)N[C@H]1CCNC(=O)[C@H]([C@@H](C)O)NC(=O)[C@H](CCN)NC(=O)[C@H](CCN)NC(=O)[C@H](CC(C)C)NC(=O)[C@@H](Cc2ccccc2)NC(=O)[C@@H](CCN)NC1=O)[C@@H](C)O.CC[C@H](C)CCCCC(=O)N[C@@H](CCN)C(=O)N[C@H](C(=O)N[C@@H](CCN)C(=O)N[C@H]1CCNC(=O)[C@H]([C@@H](C)O)NC(=O)[C@H](CCN)NC(=O)[C@H](CCN)NC(=O)[C@H](CC(C)C)NC(=O)[C@@H](Cc2ccccc2)NC(=O)[C@@H](CCN)NC1=O)[C@@H](C)O` (X1-[Dab]T[Dab][Dab][dDab][dF]L[Dab][Dab]T; lactam 4-C) the Activity (Staphylococcus aureus [15]) was “Active”, the Activity (Staphylococcus aureus [16]) was “Active” and the Activity (Staphylococcus aureus [17]) was “Active”. The Activity (Staphylococcus aureus [18]) was “Active”, the Activity (Staphylococcus aureus [19]) was “inactive” and the Activity (Staphylococcus aureus [20]) was “Active”. The Activity (Staphylococcus aureus [21]) was “Active”, the Activity (Staphylococcus aureus [22]) was “Active” and the Activity (Staphylococcus aureus [23]) was “Active”. The Activity (Staphylococcus aureus [24]) was “Active”, the Activity (Staphylococcus aureus [25]) was “Active” and the Activity (Staphylococcus aureus [26]) was “Active”.

Compound `C[C@@H](O)[C@H]1C(=O)N2C(C(=O)O)=C(SCCNC=N)C[C@H]12` [IMIPENEM ANHYDROUS] has an MIC (Staphylococcus aureus [1]) of 4 µM (≈ 1.2 µg/mL), an MIC (Staphylococcus aureus [2]) of 2 µM (≈ 0.599 µg/mL) and an MIC (Staphylococcus aureus [3]) of 32 µM (≈ 9.58 µg/mL). The MIC [4] was 4 µM (≈ 1.2 µg/mL), the MIC (Enterococcus faecalis) was 2 µM (≈ 0.599 µg/mL) and the “fold change (FC)” value (Staphylococcus aureus [27]) was 64. The Activity (Staphylococcus aureus [7]) was “Active” and the “fold change (FC)” value (Staphylococcus aureus [28]) was 2048.

With `CC(C)CCCCC(=O)N[C@@H](CCN)C(=O)N[C@H](C(=O)N[C@@H](CCN)C(=O)N[C@H]1CCNC(=O)[C@H]([C@@H](C)O)NC(=O)[C@H](CCN)NC(=O)[C@H](CCN)NC(=O)[C@H](CC(C)C)NC(=O)[C@@H](Cc2ccccc2)NC(=O)[C@H](CCN)NC1=O)[C@@H](C)O.CC[C@H](C)CCCCC(=O)N[C@@H](CCN)C(=O)N[C@H](C(=O)N[C@@H](CCN)C(=O)N[C@H]1CCNC(=O)[C@H]([C@@H](C)O)NC(=O)[C@H](CCN)NC(=O)[C@H](CCN)NC(=O)[C@H](CC(C)C)NC(=O)[C@@H](Cc2ccccc2)NC(=O)[C@H](CCN)NC1=O)[C@@H](C)O` (X1-[Dab]T[Dab][Dab][Dab][dF]L[Dab][Dab]T; lactam 4-C) the Activity [29] was “Toxic”, the Activity [30] was “Toxic” and the Activity [31] was “Toxic”. The Activity [32] was “Toxic”, the Activity [33] was “Toxic” and the Activity [34] was “Non-toxic”. The Activity [35] was “Non-toxic”, the Activity [36] was “Non-toxic” and the Activity [37] was “Toxic”. For the same compound, the Activity [38] was “Toxic”, the Activity [39] was “Toxic” and the Activity [40] was “Toxic”. For the same compound, the Activity [41] was “Toxic”, the Activity [42] was “Toxic” and the Activity [43] was “Toxic”.
